# Source: US8247211B2, “Glycopeptide antibiotics” (American Cyanamid Company, priority 2001, dated 2012)
# Columns and labels:
# Test in all cases: In vitro antibacterial evaluation: minimum inhibitory concentration (MIC), broth dilution method
# Assay type in all cases: cell-based
# Staphylococcus sp. = conditions: for MIC Coagulase Negative Staphylococcus (GC 4537): strain GC 4537; for MIC Coagulase Negative Staphylococcus (GC 4538): strain GC 4538; for MIC Staphylococcus aureus-SMITH (GC 4536): strain SMITH GC 4536
# Description: (§1) The minimum inhibitory concentration (MIC), the lowest concentration of the antibiotic which inhibits growth of the test organism, is determined by the broth dilution method using Muller-Hinton II […] (Baltimore Biological Laboratories) following the recommendations of the National Committee for Clinical Laboratory Standards [Methods for dilution antimicrobial susceptibility tests for bacteria that grow aerobically, approved standard M7-A2, National Committee for Clinical Laboratory Standards, Villanova, Pa].
# (§2) An inoculum level of 5×10^5 CFU/mL, and a range of antibiotic concentrations (64-0.06 μg/mL) is used. […] The test organisms include a spectrum of Gram-positive bacteria comprised of Staphylococcus sp., Streptococcus sp. and Enterococcus sp. These organisms include recent clinical isolates that are resistant to methicillin, penicillin and/or vancomycin.
# Escherichia coli = test system: Escherichia coli
# Description: as §1, §2
# Enterococcus sp. = conditions: for MIC Enterococcus faecalis (ATCC 29212): strain ATCC 29212
# Description: as §1, §2
# [1] = Coagulase Negative Staphylococcus (GC 4547), 18 hours at 35° C.
# [2] = Coagulase Negative Staphylococcus (GC 4547), broth dilution, 18 hours at 35° C.
# [3] = broth dilution, 18 hours at 35° C.
# [4] = Staphylococcus aureus (ATCC 29213), 18 hours at 35° C.
# [5] = Staphylococcus aureus (ATCC 29213), broth dilution, 18 hours at 35° C.
# [6] = Staphylococcus aureus (GC 1131), 18 hours at 35° C.
# [7] = Staphylococcus aureus (GC 1131), broth dilution, 18 hours at 35° C.
smiles,measurement,setting,value
CC(C)C(=O)OCC1OC(OC2C(CO)OC(Oc3ccc(CC4NC(=O)C(Cc5ccccc5)NC(=O)CNC(=O)C(CO)NC(=O)C(C(O)C5CNC(=N)N5C5OC(CO)C(O)C(O)C5O)NC(=O)C(C(O)C5CNC(=N)N5)NC4=O)cc3)C(O)C2O)C(O)C(O)C1O (centres unmarked) [Example 283a],MIC Coagulase Negative Staphylococcus (GC 4547),Staphylococcus sp.; [1],64 µg/mL
same,MIC Coagulase Negative Staphylococcus (GC 4547),Staphylococcus sp.; [2],64 µg/mL
same,MIC Coagulase Negative Staphylococcus (GC 4548),Staphylococcus sp.; 18 hours at 35° C.,64 µg/mL
same,MIC Coagulase Negative Staphylococcus (GC 4548),Staphylococcus sp.; [3],64 µg/mL
same,MIC Coagulase Negative Staphylococcus (GC 4549),Staphylococcus sp.; 18 hours at 35° C.,32 µg/mL
same,MIC Coagulase Negative Staphylococcus (GC 4549),Staphylococcus sp.; [3],32 µg/mL
same,MIC Coagulase Negative Staphylococcus (GC 4551),Staphylococcus sp.; 18 hours at 35° C.,64 µg/mL
same,MIC Coagulase Negative Staphylococcus (GC 4551),Staphylococcus sp.; [3],64 µg/mL
same,MIC Staphylococcus aureus (ATCC 29213),Staphylococcus sp.; [4],64 µg/mL
same,MIC Staphylococcus aureus (ATCC 29213),Staphylococcus sp.; [5],64 µg/mL
same,MIC Staphylococcus aureus (GC 1131),Staphylococcus sp.; [6],64 µg/mL
same,MIC Staphylococcus aureus (GC 1131),Staphylococcus sp.; [7],64 µg/mL
same,MIC Staphylococcus aureus (GC 3051),Staphylococcus sp.; 18 hours at 35° C.,64 µg/mL
same,MIC Staphylococcus aureus (GC 3051),Staphylococcus sp.; [3],64 µg/mL
same,MIC Staphylococcus aureus (GC 4541),Staphylococcus sp.; 18 hours at 35° C.,64 µg/mL
same,MIC Staphylococcus aureus (GC 4541),Staphylococcus sp.; [3],64 µg/mL
same,MIC Staphylococcus aureus (GC 4542),Staphylococcus sp.; 18 hours at 35° C.,64 µg/mL
same,MIC Staphylococcus aureus (GC 4542),Staphylococcus sp.; [3],64 µg/mL
same,MIC Staphylococcus aureus (GC 4544),Staphylococcus sp.; 18 hours at 35° C.,64 µg/mL
same,MIC Staphylococcus aureus (GC 4544),Staphylococcus sp.; [3],64 µg/mL
same,MIC Staphylococcus aureus (GC 4545),Staphylococcus sp.; 18 hours at 35° C.,64 µg/mL
same,MIC Staphylococcus aureus (GC 4545),Staphylococcus sp.; [3],64 µg/mL
same,MIC Staphylococcus aureus-SMITH (GC 4543),Staphylococcus sp.; 18 hours at 35° C.,64 µg/mL
same,MIC Staphylococcus aureus-SMITH (GC 4543),Staphylococcus sp.; [3],64 µg/mL
same,MIC Staphylococcus haemolyticus (GC 4546),Staphylococcus sp.; 18 hours at 35° C.,64 µg/mL
same,MIC Staphylococcus haemolyticus (GC 4546),Staphylococcus sp.; [3],64 µg/mL
same,MIC Escherichia coli (GC 4560),Escherichia coli; Escherichia coli (GC 4560),32 µg/mL
same,MIC Enterococcus faecium (GC 4557),Enterococcus sp.,64 µg/mL
"CC(C)CC(=O)OCC1OC(OC2C(CO)OC(Oc3ccc(CC4NC(=O)C(Cc5ccccc5)NC(=O)CNC(=O)C(CO)NC(=O)C(C(O)C5CNC(=N)N5C5OC(CO)C(O)C(O)C5O)NC(=O)C(C(O)C5CNC(=N)N5)NC4=O)cc3)C(O)C2O)C(O)C(O)C1O (centres unmarked) [Example 283c, Cyclo[glycylphenylalanyl-O-[4-O-[6-O-(3-methylbutanoyl)-hexopyranosyl]hexopyranosyl]tyrosyl-3-(2-iminoimidazolidin-4-yl)seryl-3-(3-hexopyranosyl-2-iminoimidazolidin-4-yl)serylseryl]]",MIC Coagulase Negative Staphylococcus (GC 4547),Staphylococcus sp.; [1],16 µg/mL
same,MIC Coagulase Negative Staphylococcus (GC 4547),Staphylococcus sp.; [2],16 µg/mL
same,MIC Coagulase Negative Staphylococcus (GC 4548),Staphylococcus sp.; 18 hours at 35° C.,8 µg/mL
same,MIC Coagulase Negative Staphylococcus (GC 4548),Staphylococcus sp.; [3],8 µg/mL
same,MIC Coagulase Negative Staphylococcus (GC 4549),Staphylococcus sp.; 18 hours at 35° C.,16 µg/mL
same,MIC Coagulase Negative Staphylococcus (GC 4549),Staphylococcus sp.; [3],16 µg/mL
same,MIC Coagulase Negative Staphylococcus (GC 4551),Staphylococcus sp.; 18 hours at 35° C.,32 µg/mL
same,MIC Coagulase Negative Staphylococcus (GC 4551),Staphylococcus sp.; [3],32 µg/mL
same,MIC Staphylococcus aureus (ATCC 29213),Staphylococcus sp.; [4],32 µg/mL
same,MIC Staphylococcus aureus (ATCC 29213),Staphylococcus sp.; [5],32 µg/mL
same,MIC Staphylococcus aureus (GC 1131),Staphylococcus sp.; [6],32 µg/mL
same,MIC Staphylococcus aureus (GC 1131),Staphylococcus sp.; [7],32 µg/mL
same,MIC Staphylococcus aureus (GC 3051),Staphylococcus sp.; 18 hours at 35° C.,32 µg/mL
same,MIC Staphylococcus aureus (GC 3051),Staphylococcus sp.; [3],32 µg/mL
same,MIC Staphylococcus aureus (GC 3053),Staphylococcus sp.; 18 hours at 35° C.,64 µg/mL
same,MIC Staphylococcus aureus (GC 3053),Staphylococcus sp.; [3],64 µg/mL
same,MIC Staphylococcus aureus (GC 4541),Staphylococcus sp.; 18 hours at 35° C.,32 µg/mL
same,MIC Staphylococcus aureus (GC 4541),Staphylococcus sp.; [3],32 µg/mL
same,MIC Staphylococcus aureus (GC 4542),Staphylococcus sp.; 18 hours at 35° C.,32 µg/mL
same,MIC Staphylococcus aureus (GC 4542),Staphylococcus sp.; [3],32 µg/mL
same,MIC Staphylococcus aureus (GC 4544),Staphylococcus sp.; 18 hours at 35° C.,32 µg/mL
same,MIC Staphylococcus aureus (GC 4544),Staphylococcus sp.; [3],32 µg/mL
same,MIC Staphylococcus aureus (GC 4545),Staphylococcus sp.; 18 hours at 35° C.,16 µg/mL
same,MIC Staphylococcus aureus (GC 4545),Staphylococcus sp.; [3],16 µg/mL
same,MIC Staphylococcus aureus-SMITH (GC 4543),Staphylococcus sp.; 18 hours at 35° C.,16 µg/mL
same,MIC Staphylococcus aureus-SMITH (GC 4543),Staphylococcus sp.; [3],16 µg/mL
same,MIC Staphylococcus haemolyticus (GC 4546),Staphylococcus sp.; 18 hours at 35° C.,16 µg/mL
same,MIC Staphylococcus haemolyticus (GC 4546),Staphylococcus sp.; [3],16 µg/mL
same,MIC Escherichia coli (GC 4560),Escherichia coli; Escherichia coli (GC 4560),8 µg/mL
same,MIC Enterococcus faecium (GC 4557),Enterococcus sp.,16 µg/mL
CCCCCC(=O)OCC1OC(N2C(=N)NCC2C(O)C2NC(=O)C(C(O)C3CNC(=N)N3)NC(=O)C(Cc3ccc(OC4OC(CO)C(OC5OC(CO)C(O)C(O)C5O)C(O)C4O)cc3)NC(=O)C(C(C)c3ccccc3)NC(=O)CNC(=O)C(CO)NC2=O)C(O)C(O)C1O (centres unmarked) [Example 95],MIC Staphylococcus aureus (ATCC 29213),Staphylococcus sp.; [3],>64 µg/mL
same,MIC Staphylococcus aureus (GC 1131),Staphylococcus sp.; [3],>64 µg/mL
same,MIC Staphylococcus aureus (GC 4535),Staphylococcus sp.; [3],>64 µg/mL
same,MIC Staphylococcus aureus SMITH (GC 4536),Staphylococcus sp.; [3],>64 µg/mL
same,MIC Coagulase Negative Staphylococcus (GC 4537),Staphylococcus sp.,>64 µg/mL
same,MIC Coagulase Negative Staphylococcus (GC 4538),Staphylococcus sp.,>64 µg/mL
same,MIC Coagulase Negative Staphylococcus (GC 4547),Staphylococcus sp.; strain GC 4547,>64 µg/mL
same,MIC Staphylococcus aureus-SMITH (GC 4536),Staphylococcus sp.; [3],>64 µg/mL
same,MIC Escherichia coli (GC 4559),Escherichia coli; strain GC 4559,>64 µg/mL
same,MIC Escherichia coli (GC 4560),Escherichia coli; strain GC 4560,8 µg/mL
same,MIC Enterococcus faecalis (GC 2242),"Enterococcus sp.; Enterococcus faecalis (GC 2242), broth dilution, 18 hours at 35° C.",>64 µg/mL
same,MIC Enterococcus faecalis (ATCC 29212),Enterococcus sp.,>64 µg/mL
same,MIC Enterococcus faecalis (GC 2242),Enterococcus sp.; strain GC 2242,>64 µg/mL
same,MIC Enterococcus faecalis (GC 4552),Enterococcus sp.; strain GC 4552,>64 µg/mL
CC(c1ccccc1)C1NC(=O)CNC(=O)C(CO)NC(=O)C(C(O)C2CNC(=N)N2C2OC(CO)C(O)C(O)C2O)NC(=O)C(C(O)C2CNC(=N)N2)NC(=O)C(Cc2ccc(OC3OC(COC(=O)Cc4ccccc4)C(OC4OC(CO)C(O)C(O)C4O)C(O)C3O)cc2)NC1=O (centres unmarked) [Example 98b],MIC Staphylococcus aureus (ATCC 29213),Staphylococcus sp.; [3],16 µg/mL
same,MIC Staphylococcus aureus (GC 1131),Staphylococcus sp.; [3],16 µg/mL
same,MIC Staphylococcus aureus (GC 4535),Staphylococcus sp.; [3],16 µg/mL
same,MIC Staphylococcus aureus SMITH (GC 4536),Staphylococcus sp.; [3],8 µg/mL
same,MIC Coagulase Negative Staphylococcus (GC 4537),Staphylococcus sp.,16 µg/mL
same,MIC Coagulase Negative Staphylococcus (GC 4537),Staphylococcus sp.; [3],16 µg/mL
same,MIC Coagulase Negative Staphylococcus (GC 4538),Staphylococcus sp.,8 µg/mL
same,MIC Coagulase Negative Staphylococcus (GC 4538),Staphylococcus sp.; [3],8 µg/mL
same,MIC Coagulase Negative Staphylococcus (GC 4547),Staphylococcus sp.; strain GC 4547,8 µg/mL
same,MIC Coagulase Negative Staphylococcus (GC 4547),"Staphylococcus sp.; strain GC 4547, broth dilution, 18 hours at 35° C.",8 µg/mL
same,MIC Staphylococcus aureus-SMITH (GC 4536),Staphylococcus sp.; [3],8 µg/mL
same,MIC Escherichia coli (GC 4560),Escherichia coli; strain GC 4560,2 µg/mL
same,MIC Enterococcus faecalis (ATCC 29212),Enterococcus sp.,64 µg/mL
same,MIC Enterococcus faecalis (GC 2242),Enterococcus sp.; strain GC 2242,64 µg/mL
